# According to BindingDB's records for doi:10.1021/jm701311r (Georgia Institute of Technology, 2008):
# How the values were obtained:
# Assay in all cases: AE Enzyme Inhibition Assay
# Legumain [1] = molecular target: T1, Legumain (Schistosoma mansoni, UniProt Q9NFY9)
# T1 sequence (Q9NFY9 whole entry): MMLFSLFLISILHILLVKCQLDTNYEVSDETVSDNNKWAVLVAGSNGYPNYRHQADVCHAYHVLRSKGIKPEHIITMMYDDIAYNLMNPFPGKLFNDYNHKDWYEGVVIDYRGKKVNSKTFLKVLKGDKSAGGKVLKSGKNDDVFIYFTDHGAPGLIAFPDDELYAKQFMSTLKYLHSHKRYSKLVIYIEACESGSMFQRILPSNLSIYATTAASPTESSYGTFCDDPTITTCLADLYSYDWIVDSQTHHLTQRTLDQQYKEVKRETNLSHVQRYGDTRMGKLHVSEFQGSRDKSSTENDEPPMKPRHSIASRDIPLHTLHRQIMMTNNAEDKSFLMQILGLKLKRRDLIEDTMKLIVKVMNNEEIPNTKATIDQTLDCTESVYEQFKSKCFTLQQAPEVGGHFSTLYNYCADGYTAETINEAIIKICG
# Method: (§1) AE activity in the induction medium was measured with the substrate Cbz-Ala-Ala-Asn-AMC. In a black 96-well microtiter plate, aza-peptidyl inhibitors were added to the reaction buffer containing the activated enzyme, and allowed to incubate at room temperature for 20 min. Then, substrate Cbz- Ala-Ala-Asn-AMC was added and the reaction allowed proceeding for 20 min. Plotting the relative fluorescence units (RFU)/min against the inhibitor concentration (uM) permitted calculation of the IC50 value.
# Legumain [2] = molecular target: T2, Legumain (Ixodes ricinus, UniProt Q6PRC7); conditions: 25 °C
# T2 sequence (Q6PRC7 whole entry): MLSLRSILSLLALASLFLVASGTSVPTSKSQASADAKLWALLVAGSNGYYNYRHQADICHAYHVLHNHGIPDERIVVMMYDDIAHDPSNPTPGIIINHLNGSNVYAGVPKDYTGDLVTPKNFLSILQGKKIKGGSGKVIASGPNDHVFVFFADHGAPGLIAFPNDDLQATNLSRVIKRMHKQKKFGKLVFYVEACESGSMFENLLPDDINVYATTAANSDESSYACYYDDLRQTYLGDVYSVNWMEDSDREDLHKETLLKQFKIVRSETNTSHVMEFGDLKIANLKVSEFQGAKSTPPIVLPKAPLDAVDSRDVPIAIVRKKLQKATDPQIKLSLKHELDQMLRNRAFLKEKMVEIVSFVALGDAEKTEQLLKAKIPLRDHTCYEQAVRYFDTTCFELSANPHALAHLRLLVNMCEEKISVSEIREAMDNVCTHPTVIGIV
# Method: as §1
# [3] = molecular target: T3, Clan CD, family C13, asparaginyl endopeptidase-like cysteine peptidase (Trichomonas vaginalis (strain ATCC PRA-98 / G3), UniProt A2DYT2); conditions: 25 °C
# T3 sequence (A2DYT2 whole entry): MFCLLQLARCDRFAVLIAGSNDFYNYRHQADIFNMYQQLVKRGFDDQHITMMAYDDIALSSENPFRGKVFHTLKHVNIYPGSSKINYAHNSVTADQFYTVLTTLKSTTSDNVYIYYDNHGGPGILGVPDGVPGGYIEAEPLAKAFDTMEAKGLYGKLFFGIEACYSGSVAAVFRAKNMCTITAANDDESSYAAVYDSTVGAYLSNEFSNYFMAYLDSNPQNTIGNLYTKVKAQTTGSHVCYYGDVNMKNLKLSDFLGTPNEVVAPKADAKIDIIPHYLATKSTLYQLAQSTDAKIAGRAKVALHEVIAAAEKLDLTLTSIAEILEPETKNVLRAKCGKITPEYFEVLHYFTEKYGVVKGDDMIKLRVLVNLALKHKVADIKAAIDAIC
# Method: as §1
Compound,"IC50 (Legumain [1]; pH 6.8, 22 °C) [nM]",IC50 (Legumain [2]) [nM],IC50 [3] [nM],IC50 (Legumain [1]; 25 °C) [nM]
"C[C@H](NC(=O)OCc1ccccc1)C(=O)N[C@@H](C)C(=O)NN(CC(N)=O)C(=O)C=CC(=O)N(Cc1ccccc1)Cc1ccccc1 [benzyl N-[(1S)-1-{[(2S)-1-[(2E)-N,N-dibenzyl-3-[N-(carbamoylmethyl)hydrazido]prop-2-enamide]-1-oxopropan-2-yl]carbamoyl}ethyl]carbamate]",45,450,10,–
C[C@H](NC(=O)OCc1ccccc1)C(=O)N[C@@H](C)C(=O)NN(CC(N)=O)C(=O)C=Cc1cccnc1 [benzyl N-[(1S)-1-{[(2S)-1-[(2E)-N-(carbamoylmethyl)-3-(pyridin-3-yl)prop-2-enehydrazido]-1-oxopropan-2-yl]carbamoyl}ethyl]carbamate],> 2000,15000,8000,–
"C[C@H](NC(=O)OCc1ccccc1)C(=O)N[C@@H](C)C(=O)NN(CC(N)=O)C(=O)C=CC(=O)N1CCc2ccccc2C1 [benzyl N-[(1S)-1-{[(2S)-1-[(2E)-N-(carbamoylmethyl)-4-oxo-4-(1,2,3,4-tetrahydroisoquinolin-2-yl)but-2-enehydrazido]-1-oxopropan-2-yl]carbamoyl}ethyl]carbamate]",–,25,10,200
"C[C@H](NC(=O)OCc1ccccc1)C(=O)N[C@@H](C)C(=O)NN(CC(N)=O)C(=O)C=CC(=O)N1CCCc2ccccc21 [benzyl N-[(1S)-1-{[(2S)-1-[(2E)-N-(carbamoylmethyl)-4-oxo-4-(1,2,3,4-tetrahydroquinolin-1-yl)but-2-enehydrazido]-1-oxopropan-2-yl]carbamoyl}ethyl]carbamate]",–,4,3.5,70
"C[C@H](NC(=O)OCc1ccccc1)C(=O)N[C@@H](C)C(=O)NN(CC(N)=O)C(=O)C=CC(=O)N1CC=C(c2ccccc2)CC1 [benzyl N-[(1S)-1-{[(2S)-1-[(2E)-N-(carbamoylmethyl)-4-oxo-4-(4-phenyl-1,2,3,6-tetrahydropyridin-1-yl)but-2-enehydrazido]-1-oxopropan-2-yl]carbamoyl}ethyl]carbamate]",–,85,10,750
C[C@H](NC(=O)OCc1ccccc1)C(=O)N[C@@H](C)C(=O)NN(CC(N)=O)C(=O)C=CC(=O)N(Cc1ccccc1)Cc1cccc2ccccc12 [benzyl N-[(1S)-1-{[(2S)-1-[(2E)-N-benzyl-3-[N-(carbamoylmethyl)hydrazido]-N-(naphthalen-1-ylmethyl)prop-2-enamide]-1-oxopropan-2-yl]carbamoyl}ethyl]carbamate],–,6,< 1,62
C[C@H](NC(=O)OCc1ccccc1)C(=O)N[C@@H](C)C(=O)NN(CC(N)=O)C(=O)C=CC(=O)N(Cc1ccccc1)Cc1ccc2ccccc2c1 [benzyl N-[(1S)-1-{[(2S)-1-[(2E)-N-benzyl-3-[N-(carbamoylmethyl)hydrazido]-N-(naphthalen-2-ylmethyl)prop-2-enamide]-1-oxopropan-2-yl]carbamoyl}ethyl]carbamate],–,8,6,70
C[C@H](NC(=O)OCc1ccccc1)C(=O)N[C@@H](C)C(=O)NN(CC(N)=O)C(=O)C=CC(=O)N(Cc1ccccc1)Cc1ccc(F)cc1 [benzyl N-[(1S)-1-{[(2S)-1-[(2E)-N-benzyl-3-[N-(carbamoylmethyl)hydrazido]-N-[(4-fluorophenyl)methyl]prop-2-enamide]-1-oxopropan-2-yl]carbamoyl}ethyl]carbamate],–,700,< 1,60
COc1ccc(CN(Cc2ccccc2)C(=O)C=CC(=O)N(CC(N)=O)NC(=O)[C@H](C)NC(=O)[C@H](C)NC(=O)OCc2ccccc2)cc1 [benzyl N-[(1S)-1-{[(2S)-1-[(2E)-N-benzyl-3-[N-(carbamoylmethyl)hydrazido]-N-[(4-methoxyphenyl)methyl]prop-2-enamide]-1-oxopropan-2-yl]carbamoyl}ethyl]carbamate],90,12,2.3,–
